Source: ChEMBL document CHEMBL1121754 (J Med Chem, 1981)

Key:
[1] = Partition coefficient (logP); assay type: physicochemical; details: octanol/water
[2] = molecular target: 5-hydroxytryptamine receptor 2B (Rattus norvegicus, UniProt P30994); assay: Affinity against 5-hydroxytryptamine 2B receptor in the isolated rat stomach fundus; assay type: tissue-based; details: read-out: pA2 (converted)
[3] = Equilibrium constant for DNB complex formation; design: unit not given here
Oryctolagus cuniculus = organism: Oryctolagus cuniculus; assay: Hyperthermic potency in rabbit relative to DOM; assay type: functional
Homo sapiens = organism: Homo sapiens; assay: Human hallucinogenic activity relative to mescaline; assay type: functional

Sequence of 5-hydroxytryptamine receptor 2B (P30994 whole entry): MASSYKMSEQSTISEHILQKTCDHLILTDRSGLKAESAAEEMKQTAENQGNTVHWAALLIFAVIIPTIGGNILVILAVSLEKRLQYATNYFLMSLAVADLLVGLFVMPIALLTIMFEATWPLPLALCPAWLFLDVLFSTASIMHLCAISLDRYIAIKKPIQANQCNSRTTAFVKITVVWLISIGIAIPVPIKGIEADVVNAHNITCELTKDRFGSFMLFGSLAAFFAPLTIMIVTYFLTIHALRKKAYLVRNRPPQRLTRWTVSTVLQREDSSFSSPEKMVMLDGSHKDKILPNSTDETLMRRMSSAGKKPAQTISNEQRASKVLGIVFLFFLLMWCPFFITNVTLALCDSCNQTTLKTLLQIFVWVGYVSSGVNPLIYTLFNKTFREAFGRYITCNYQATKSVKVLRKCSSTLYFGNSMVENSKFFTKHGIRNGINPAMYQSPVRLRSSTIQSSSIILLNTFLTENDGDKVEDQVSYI

SMILES | logP [1] | logP ([1]; read-out: logP) | Kb [2] [nM] | KDNB [3] | Relative activity (Oryctolagus cuniculus) | Relative activity (Homo sapiens)
COc1cc(CC(C)N)c(OC)cc1Br (stereo not drawn) [BROLAMFETAMINE] | 2.54 | 2.58 |  |  |  | 
COc1ccc(CC(C)N)cc1OC (stereo not drawn) | 1.2 | 1 | 3550 | 1.95 | <<0.3 | <1
COc1ccc(CC(C)N)cc1 (stereo not drawn) [PARA-METHOXYAMPHETAMINE] |  | 1.77 | 6920 | 1.02 |  | 4
COc1cc(OC)c(CC(C)N)c(OC)c1 (stereo not drawn) |  | 1.57 | 525 | 2.09 | 3.1 | 10
COc1ccc(CC(C)N)c(OC)c1 (stereo not drawn) |  | 1.75 | 2510 | 1.32 | 2.5 | 5
COc1cc(CC(C)N)c(OC)cc1C (stereo not drawn) [DOM] | 2.24 | 2.08 | 75.9 |  | 100 | 80
COc1cc(C)c(CC(C)N)cc1OC (stereo not drawn) |  | 1.66 | 1380 |  | 0.5 | 
COc1cc(OC)c(CC(C)N)cc1C (stereo not drawn) |  | 2.31 | 2450 |  | 0.9 | 
CC(N)Cc1ccccc1 (stereo not drawn) |  |  |  | 0.55 |  | 
COc1ccc(OC)c(CC(C)N)c1 (stereo not drawn) | 1.72 | 1.88 |  |  |  | 
COc1cccc(OC)c1CC(C)N (stereo not drawn) |  |  | 8130 | 1.49 |  | 
COc1cc(OC)c(OC)cc1CC(C)N (stereo not drawn) | 1.1 | 1.74 | 155 | 1.7 | 11.8 | 17
COc1ccc(CC(C)N)c(OC)c1OC (stereo not drawn) |  | 1.36 | 8510 | 1.7 | <<0.3 | <2
COc1cc(OC)c(CC(C)N)cc1Br (stereo not drawn) |  | 2.61 |  |  | 2.3 | 4
COc1cc(SC)c(OC)cc1CC(C)N (stereo not drawn) |  | 2.17 |  |  | 53.9 | 50
COc1cc(OC)c(SC)cc1CC(C)N (stereo not drawn) |  | 2.22 | 1700 |  | 2.8 | 1
COc1cc(CC(C)N)cc(OC)c1OC (stereo not drawn) |  | 1.48 | 2510 | 3.14 | 3.6 | 2.2
COc1cc(CC(C)N)c(SC)cc1OC (stereo not drawn) |  | 1.71 |  |  | 1.7 | 
CC(N)Cc1ccc2c(c1)OCO2 (stereo not drawn) [TENAMFETAMINE] |  | 1.63 |  | 0.68 |  | 
COc1cc(Br)c(CC(C)N)cc1OC (stereo not drawn) |  | 1.96 | 1780 |  | 3.4 | 
COc1cccc(CC(C)N)c1 (stereo not drawn) |  |  | 1200 | 0.96 |  | 
